Laboratory results: patent publication US20220323406A1, “METHODS AND COMPOSITIONS FOR DIFFERENTIATING STEM CELLS” (Massachusetts Institute of Technology, priority 2019, published 2022)

Key:
[1] = tested on: ENR+CD organoids (ISC to Paneth cell differentiation); assay: Secondary (validation) screen: LYZ.S CCh-stimulated lysozyme secretion, 2.5-D 384-well ENR+CD organoids; type: cell-based, mouse; settings: for Dose.FC.LYZ.S: 6-day ENR+CD, vs ENR+CD+DMSO
[2] = tested on: intestinal organoids; assay: Population RNA-sequencing of treated organoids; type: cell-based, mouse
Method: Population RNA-sequencing. Population RNA-seq was performed using a derivative of the Smart-Seq2 protocol for single cells. In brief, organoid media was aspirated and RLT+BME (Qiagen) was added to each well, and plate shaken for 30 minutes to fully lyse. Lysate was aliquoted into 4 identical fractions and stored at −80° C. until reverse transcription. RNA lysate was thawed and cleaned with a 2.2×SPRI ratio using Agencourt RNAClean XP beads (Beckman Coulter, A63987). RNA-seq was performed on a bulk population of sorted basal cells using Smart-Seq2 chemistry, starting with a 2.2×SPRI ratio cleanup. After oligo-dT priming, Maxima H Minus Reverse Transcriptase (ThermoFisher EP0753) was used to synthesize cDNA with an elongation step at 52° C. before PCR amplification (15 cycles for tissue, 18 cycles for sorted basal cells) using KAPA HiFi PCR Mastermix (Kapa Biosystems KK2602). Sequencing libraries were prepared using the Nextera XT DNA tagmentation kit (Illumina FC-131-1096) with 250 pg input for each sample. Libraries were pooled post-Nextera and cleaned using Agencourt AMPure SPRI beads with successive 0.7× and 0.8× ratio SPRIs and sequenced with an Illumina 75 Cycle NextSeq500/550v2 kit (Illumina FC-404-2005) with loading density at […], with paired end 35 cycle read structure. Samples were sequenced at an average read depth of 8.44 million reads per sample and a total of 96 samples.
Organoid samples were aligned to the Mm10 genome and transcriptome using STAR and RSEM. […] For module scoring with the in vivo Paneth and enteroendocrine cell-defining genes, Applicants used previously published gene sets and computed per sample module scores through the Seurat package.

[3] = tested on: small intestine crypts (Paneth, stem, goblet cells); assay: Animal study: histological quantification of Paneth, Olfm4+ stem and PAS+ goblet cells per crypt; type: in vivo, mouse; settings: every other day, day 14
Method: Following a similar protocol as previously reported for SINE treatment in the context of cancer (Arango et al., 2017; […] Zheng et al., 2014), KPT-330 was administered at a dose 10 mg/kg via oral gavage every other day over a two-week span in C57BL/6 wild-type mice, and body weight was monitored for any clear toxicity. […] Applicants tracked animal weight every other day, and at day 14 collected the proximal and distal thirds of the small intestine for histological quantification of Paneth, stem, and goblet populations (FIG. 26A). […] Samples were prepared for histology by the ‘swiss-roll’ technique, and following staining, were blinded and randomized before manual counting of well-preserved features. […] Applicants additionally quantified the abundance of Olfm4+ stem cells as well as PAS+ goblet cells within the same animals to ascertain whether the effect of SINE treatment was restricted to the Paneth cell compartment (representative images FIG. 30D,E). […] Animal study. 8-10 weeks old wild type C57BL/6NCrl male mice (#027) were purchased from Charles River. Mice were housed under 12 h light/dark cycle and provided food and water ad libitum. 0.01, 0.05, 0.2 or 10 mg/kg of KPT-330 were injected orally using a disposable gavage needle (Cadence Science, #9921) at 10 μL/g weight. KPT-330 was dissolved in DMSO initially and further diluted in sterile PBS containing Pluronic F-68 Non-ionic Surfactant (Gibco, #24040032) and Polyvinylpyrrolidone (PVP, Alfa Aesar, A14315, average M.W. 58,000); the final concentration of DMSO is 2%, Pluronic is 0.5%, and PVP is 0.5%. KPT-330 was administered every other day for two weeks, 7 injections in total (days 0, 2, 4, 6, 8, 10, 12), and mice were sacrificed at day 14. All animal studies are approved by the Committee on Animal Care (CAC) at Massachusetts Institute of Technology. Histology. The small intestine (SI) was collected from mice and divided into three parts. Only proximal and distal SI were kept in PBS, and medial SI was discarded. Each SI was opened longitudinally and washed in PBS. […] Fixed tissues were embedded in paraffin, and 4 μm sections were mounted on slides. For immunohistochemistry, slides were deparaffinized, antigen retrieved using heat-induced epitope retrieval at 97° C. for 20 min using citrate buffer pH 6, and probed with appropriate antibodies followed by DAB staining. For McManus Periodic Acid Schiff (PAS) reaction, slides were deparaffinized, oxidized in periodic acid, and stained with Schiff reagent (Poly Scientific, s272) followed by counterstaining with Harris Hematoxylin. Slides were scanned by Aperio Slide Scanner (Leica) and cells were counted on Aperio eSlide Manager. Slides were randomized before counting, and all cell types were counted in all well-preserved crypts along the longitudinal crypt-villus axis.

[4] = mouse, in vivo, po
[5] = tested on: ENR+CD organoids; assay: Primary screen: ATP (CellTiter-Glo 3D, CTG) cell number/viability, 2.5-D 384-well ENR+CD organoids; settings: for Dose.FC.CTG (log2 fold change): primary screen;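 as to all read-outs here: compounds given at plating and again on day 3 over a 6-day differentiation from ENR+CV stem-cell-enriched precursors, ATP measured on day 6, plate median as control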

O=C(/C=C\n1cnc(-c2cc(C(F)(F)F)cc(C(F)(F)F)c2)n1)NNc1cnccn1 [KPT-330]
Dose.FC.LYZ.S ([1]; 0.02 uM): −0.004 log2 fold change
Dose.FC.LYZ.S ([1]; 0.04 uM): −0.077 log2 fold change
Dose.FC.LYZ.S ([1]; 0.08 uM): 0.134 log2 fold change
Dose.FC.LYZ.S ([1]; […]): 0.215 log2 fold change
increase in stimulated LYZ secretion (LYZ.S) relative to ENR+CD control ([1]; validated dose-treatments, mean fold change vs ENR+CD+DMSO): 50-75%
number of differentially expressed genes among hit compounds ([2]; ENR and ENR+CD): most differentially expressed genes
secretory cell gene set scores (Paneth, goblet, EEC) from bulk transcripts ([2]; ENR+CV, ENR+CD or ENR): increase secretory cells (Paneth, goblet, and EEC)
Olfm4+ stem cells, distal small intestine ([3]; 0.01 mg/kg oral): significant increase in Olfm4+ stem cells
Paneth cells per crypt, distal small intestine ([3]; 0.01 mg/kg oral): significant increases in Paneth abundance
Paneth cells per crypt, proximal small intestine ([3]; 0.01 mg/kg oral): significant increases in Paneth abundance
Paneth cells per crypt, proximal small intestine ([3]; 0.2 mg/kg oral): significant increases in Paneth abundance
PAS+ goblet cell population ([3]; 0.01-0.2 mg/kg oral): did not overserve any significant changes
toxicity to mice (body weight) [4]: toxic to mice
toxicity in primary screening ([5]; concentrations higher than 160 nM, 6 days): toxic
Dose.FC.CTG (log2 fold change) ([5]; dose 0.08 uM): 0.210
Dose.FC.CTG (log2 fold change) ([5]; dose 0.40 uM): −0.657
Dose.FC.CTG (log2 fold change) ([5]; dose 2.00 uM): −0.894
Dose.FC.CTG (log2 fold change) ([5]; dose 10.00 uM): −1.876
